Results as given in ChEMBL document CHEMBL2163295, “Uvaridacols E-H, highly oxygenated antiausterity agents from Uvaria dac” (2012).

What was measured:
[1] = system: PANC-1; test: Cytotoxicity against human PANC1 cells grown in nutrient-deprived medium after 24 hrs by WST8 assay; format: functional
[2] = system: PANC-1; test: Cytotoxicity against human PANC1 cells grown in DMEM medium after 24 hrs by WST8 assay; format: functional

| SMILES | PC50 [1] [µM] | PC50 [2] [µM] |
| --- | --- | --- |
| COc1cc(C[C@H]2C(=O)OC[C@@H]2Cc2ccc(OC)c(OC)c2)ccc1O [ARCTIGENIN] | 1 |  |
| O=C(OC[C@]1(O)C=C[C@H](O)[C@@H](OC(=O)c2ccccc2)[C@@H]1O)c1ccccc1 [UVARIDACOL E] | 135 |  |
| CC(=O)O[C@@H]1[C@@H](OC(=O)c2ccccc2)[C@@H](O)C=C[C@]1(O)COC(=O)c1ccccc1 [UVARIDACOL F] | 124 |  |
| O=C(OC[C@]1(O)C=C[C@@H](O)[C@H](O)[C@H]1OC(=O)c1ccccc1)c1ccccc1 [UVARIDACOL G] | >200 |  |
| Nc1ccn([C@@H]2O[C@H](CO)[C@@H](O)C2(F)F)c(=O)n1 [GEMCITABINE] | >200 | >200 |
| O=c1[nH]cc(F)c(=O)[nH]1 [FLUOROURACIL] | >200 | >200 |
| CC(=O)O[C@@H]1[C@@H](O)[C@H](OC(=O)c2ccccc2)C=C[C@@]1(O)COC(=O)c1ccccc1 [UVARIDACOL H] | 156 |  |
